Assay results as given in ChEMBL document CHEMBL1153047, “Discovery of N-[(1-aryl-1H-indazol-5-yl)methyl]amides derivatives as smoothened antagonists for inhibition of the hedgehog pathway” (Bioorg Med Chem Lett, 2009).

Biological target: Protein smoothened (Homo sapiens, UniProt Q99835)
Assay: Inhibition of BODIPY-cyclopamine to Smo in human HEK293 Flag-Smo cells in presence of 2% FCS
Format: cell-based

Chain of Protein smoothened (Q99835 whole entry): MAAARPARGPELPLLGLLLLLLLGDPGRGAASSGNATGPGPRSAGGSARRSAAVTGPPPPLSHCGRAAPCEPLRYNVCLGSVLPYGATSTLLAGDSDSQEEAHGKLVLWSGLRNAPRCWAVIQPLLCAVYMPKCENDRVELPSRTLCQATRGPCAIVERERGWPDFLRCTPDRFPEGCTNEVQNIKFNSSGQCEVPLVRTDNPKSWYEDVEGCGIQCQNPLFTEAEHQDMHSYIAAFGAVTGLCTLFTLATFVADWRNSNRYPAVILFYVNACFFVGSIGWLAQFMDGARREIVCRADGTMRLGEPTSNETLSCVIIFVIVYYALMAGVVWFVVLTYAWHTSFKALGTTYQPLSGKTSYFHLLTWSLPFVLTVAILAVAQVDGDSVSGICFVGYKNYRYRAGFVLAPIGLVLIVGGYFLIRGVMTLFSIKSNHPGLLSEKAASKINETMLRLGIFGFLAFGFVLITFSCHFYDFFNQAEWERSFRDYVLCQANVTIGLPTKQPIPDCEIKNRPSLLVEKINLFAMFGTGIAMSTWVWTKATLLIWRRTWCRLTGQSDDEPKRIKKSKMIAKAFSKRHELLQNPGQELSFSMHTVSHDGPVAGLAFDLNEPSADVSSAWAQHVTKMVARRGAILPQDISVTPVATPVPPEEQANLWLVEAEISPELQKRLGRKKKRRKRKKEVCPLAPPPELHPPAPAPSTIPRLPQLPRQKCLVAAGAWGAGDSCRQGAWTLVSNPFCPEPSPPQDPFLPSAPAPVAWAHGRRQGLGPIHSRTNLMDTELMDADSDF

IC50: > 10 µM
Structure (SMILES): O=C(Cc1ccccc1)NCc1ccc2c(cnn2-c2ccc(F)cc2)c1
